The kinase profiling compilation of Christmann-Franck et al. (2016)

Columns and labels:
Assay in all cases: KINOMEscan competition binding
Details in all cases: compound 10.0 µM
ABL1 (human) = ABL1 (human) (UniProt P00519)
RPS6KA3 KD2 (human) = RPS6KA3 KD2 (human) (UniProt P51812)
SGK1 (human) = SGK1 (human) (UniProt O00141)
WNK1 (human) = WNK1 (human) (UniProt Q9H4A3)
NEK10 (human) = NEK10 (human) (UniProt Q6ZWH5)

Chain of RPS6KA3 KD2 (human) (P51812 whole entry, looked up): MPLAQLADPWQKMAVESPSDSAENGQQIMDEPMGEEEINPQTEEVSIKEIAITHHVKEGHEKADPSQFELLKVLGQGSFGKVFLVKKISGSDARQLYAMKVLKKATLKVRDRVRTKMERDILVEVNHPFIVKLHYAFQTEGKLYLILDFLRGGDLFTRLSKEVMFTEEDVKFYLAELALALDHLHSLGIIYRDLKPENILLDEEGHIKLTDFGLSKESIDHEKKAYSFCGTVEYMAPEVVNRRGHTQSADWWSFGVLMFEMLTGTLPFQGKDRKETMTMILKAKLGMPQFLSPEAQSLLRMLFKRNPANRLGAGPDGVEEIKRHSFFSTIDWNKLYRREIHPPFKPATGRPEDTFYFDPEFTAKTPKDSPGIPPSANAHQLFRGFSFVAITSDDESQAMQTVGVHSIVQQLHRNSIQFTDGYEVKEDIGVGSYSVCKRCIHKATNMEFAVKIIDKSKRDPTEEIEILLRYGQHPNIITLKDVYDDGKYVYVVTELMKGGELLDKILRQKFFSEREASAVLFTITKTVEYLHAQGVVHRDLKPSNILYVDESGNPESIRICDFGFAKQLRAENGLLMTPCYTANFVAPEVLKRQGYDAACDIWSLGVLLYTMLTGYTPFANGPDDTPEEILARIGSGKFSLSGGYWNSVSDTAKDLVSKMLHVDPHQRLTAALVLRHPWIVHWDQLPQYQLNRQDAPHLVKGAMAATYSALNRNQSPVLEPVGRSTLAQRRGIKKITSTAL
Chain of SGK1 (human) (O00141 whole entry, looked up): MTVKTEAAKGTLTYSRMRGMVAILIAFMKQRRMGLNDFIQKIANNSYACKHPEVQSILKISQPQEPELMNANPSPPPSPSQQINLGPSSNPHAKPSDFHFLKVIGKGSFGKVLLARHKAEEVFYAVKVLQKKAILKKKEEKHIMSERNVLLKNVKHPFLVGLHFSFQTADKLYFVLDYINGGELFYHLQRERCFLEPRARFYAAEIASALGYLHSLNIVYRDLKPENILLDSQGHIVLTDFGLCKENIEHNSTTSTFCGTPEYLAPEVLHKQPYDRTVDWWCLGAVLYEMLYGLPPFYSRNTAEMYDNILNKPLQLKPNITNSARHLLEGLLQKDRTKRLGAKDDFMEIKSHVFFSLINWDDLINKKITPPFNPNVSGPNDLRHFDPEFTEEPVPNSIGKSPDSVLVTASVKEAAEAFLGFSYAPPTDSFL
Chain of ABL1 (human) (P00519 whole entry, looked up): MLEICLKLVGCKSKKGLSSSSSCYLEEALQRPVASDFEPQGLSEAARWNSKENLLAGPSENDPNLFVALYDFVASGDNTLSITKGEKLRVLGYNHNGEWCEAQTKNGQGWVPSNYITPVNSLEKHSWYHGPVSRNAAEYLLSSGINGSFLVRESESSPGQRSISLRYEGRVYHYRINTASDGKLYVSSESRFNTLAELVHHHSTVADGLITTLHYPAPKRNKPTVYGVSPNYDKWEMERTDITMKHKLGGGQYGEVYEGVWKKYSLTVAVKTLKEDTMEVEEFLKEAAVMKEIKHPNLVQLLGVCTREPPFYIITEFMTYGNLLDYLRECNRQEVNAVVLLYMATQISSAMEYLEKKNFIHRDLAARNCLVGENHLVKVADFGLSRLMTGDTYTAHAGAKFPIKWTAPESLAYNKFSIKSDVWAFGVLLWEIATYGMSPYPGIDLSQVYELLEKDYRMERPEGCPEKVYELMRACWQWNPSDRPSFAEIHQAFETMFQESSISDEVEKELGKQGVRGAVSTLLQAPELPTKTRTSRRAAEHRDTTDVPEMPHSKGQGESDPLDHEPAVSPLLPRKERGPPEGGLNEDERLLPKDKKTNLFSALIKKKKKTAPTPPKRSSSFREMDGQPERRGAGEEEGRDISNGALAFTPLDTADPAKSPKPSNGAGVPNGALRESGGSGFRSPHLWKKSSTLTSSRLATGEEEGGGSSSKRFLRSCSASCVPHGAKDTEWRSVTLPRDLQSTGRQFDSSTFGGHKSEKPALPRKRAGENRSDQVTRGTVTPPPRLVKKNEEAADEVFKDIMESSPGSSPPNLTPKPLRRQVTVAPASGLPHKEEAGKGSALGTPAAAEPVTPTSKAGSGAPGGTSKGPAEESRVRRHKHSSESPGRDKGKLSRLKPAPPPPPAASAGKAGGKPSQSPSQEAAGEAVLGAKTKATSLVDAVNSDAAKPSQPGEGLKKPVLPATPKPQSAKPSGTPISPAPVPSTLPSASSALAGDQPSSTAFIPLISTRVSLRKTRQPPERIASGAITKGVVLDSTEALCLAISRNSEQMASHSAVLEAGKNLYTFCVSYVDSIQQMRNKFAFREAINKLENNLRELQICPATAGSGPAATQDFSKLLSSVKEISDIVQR
Chain of WNK1 (human) (Q9H4A3 whole entry, looked up): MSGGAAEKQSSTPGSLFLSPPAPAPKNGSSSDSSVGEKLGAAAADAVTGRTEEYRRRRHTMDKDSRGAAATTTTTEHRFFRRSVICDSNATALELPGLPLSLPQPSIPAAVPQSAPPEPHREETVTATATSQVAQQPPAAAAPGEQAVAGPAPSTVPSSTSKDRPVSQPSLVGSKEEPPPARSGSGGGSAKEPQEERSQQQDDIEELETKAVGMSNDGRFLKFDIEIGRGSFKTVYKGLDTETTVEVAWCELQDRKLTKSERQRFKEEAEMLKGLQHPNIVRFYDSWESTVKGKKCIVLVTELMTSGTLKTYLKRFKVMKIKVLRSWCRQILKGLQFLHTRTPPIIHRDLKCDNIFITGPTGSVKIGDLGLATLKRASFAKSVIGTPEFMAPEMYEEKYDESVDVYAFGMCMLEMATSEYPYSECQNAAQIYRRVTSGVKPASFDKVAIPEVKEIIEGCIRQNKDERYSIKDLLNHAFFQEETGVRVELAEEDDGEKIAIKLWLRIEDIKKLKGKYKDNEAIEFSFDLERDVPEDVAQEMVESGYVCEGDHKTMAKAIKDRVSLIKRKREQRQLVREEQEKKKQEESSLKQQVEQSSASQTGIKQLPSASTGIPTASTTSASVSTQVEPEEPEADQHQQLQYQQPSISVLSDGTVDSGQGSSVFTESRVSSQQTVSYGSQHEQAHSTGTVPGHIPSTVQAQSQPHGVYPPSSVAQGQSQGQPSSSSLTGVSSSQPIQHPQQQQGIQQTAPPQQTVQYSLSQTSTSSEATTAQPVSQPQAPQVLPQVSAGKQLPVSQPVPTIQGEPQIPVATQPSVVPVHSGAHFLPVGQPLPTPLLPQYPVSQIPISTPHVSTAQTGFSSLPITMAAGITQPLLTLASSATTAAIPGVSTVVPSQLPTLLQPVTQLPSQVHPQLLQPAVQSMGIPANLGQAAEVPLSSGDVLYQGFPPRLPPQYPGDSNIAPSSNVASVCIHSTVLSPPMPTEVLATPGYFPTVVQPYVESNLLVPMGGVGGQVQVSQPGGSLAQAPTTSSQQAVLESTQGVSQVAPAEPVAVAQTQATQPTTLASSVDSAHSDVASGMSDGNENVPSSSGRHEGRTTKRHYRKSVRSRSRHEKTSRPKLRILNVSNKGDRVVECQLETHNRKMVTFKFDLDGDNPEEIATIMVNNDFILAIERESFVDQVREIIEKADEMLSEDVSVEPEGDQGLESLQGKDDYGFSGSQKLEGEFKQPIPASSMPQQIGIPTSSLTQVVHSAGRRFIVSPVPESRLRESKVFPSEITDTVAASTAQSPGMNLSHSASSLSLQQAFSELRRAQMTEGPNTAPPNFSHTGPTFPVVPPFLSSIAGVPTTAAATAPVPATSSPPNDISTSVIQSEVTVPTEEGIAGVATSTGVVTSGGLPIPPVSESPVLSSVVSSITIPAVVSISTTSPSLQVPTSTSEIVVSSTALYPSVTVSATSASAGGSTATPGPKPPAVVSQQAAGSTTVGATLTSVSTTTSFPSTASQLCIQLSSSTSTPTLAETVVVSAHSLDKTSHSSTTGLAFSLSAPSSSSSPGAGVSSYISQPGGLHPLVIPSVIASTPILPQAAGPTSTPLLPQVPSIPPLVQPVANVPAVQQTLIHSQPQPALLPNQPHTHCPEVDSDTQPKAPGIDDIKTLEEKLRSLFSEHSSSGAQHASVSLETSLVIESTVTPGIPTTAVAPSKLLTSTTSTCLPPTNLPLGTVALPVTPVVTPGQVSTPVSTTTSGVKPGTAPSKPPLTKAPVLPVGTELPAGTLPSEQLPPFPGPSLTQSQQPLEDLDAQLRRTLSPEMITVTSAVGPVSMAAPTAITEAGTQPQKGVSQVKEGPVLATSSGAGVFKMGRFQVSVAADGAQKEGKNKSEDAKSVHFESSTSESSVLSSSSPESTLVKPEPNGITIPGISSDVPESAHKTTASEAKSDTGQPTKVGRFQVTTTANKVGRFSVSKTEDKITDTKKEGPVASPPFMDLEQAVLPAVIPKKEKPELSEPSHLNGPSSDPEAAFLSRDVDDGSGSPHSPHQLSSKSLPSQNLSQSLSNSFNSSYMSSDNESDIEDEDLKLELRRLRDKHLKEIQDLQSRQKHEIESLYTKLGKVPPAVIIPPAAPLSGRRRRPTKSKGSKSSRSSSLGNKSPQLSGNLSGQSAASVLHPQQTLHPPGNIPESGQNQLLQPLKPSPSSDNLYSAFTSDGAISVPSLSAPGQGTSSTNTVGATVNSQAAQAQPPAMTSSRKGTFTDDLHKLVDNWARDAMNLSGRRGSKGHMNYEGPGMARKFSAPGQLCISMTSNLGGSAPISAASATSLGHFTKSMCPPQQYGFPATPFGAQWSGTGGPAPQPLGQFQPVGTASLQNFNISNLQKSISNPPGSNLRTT

Row | SMILES | kinase still bound, per cent of control (ABL1 (human)) [%] | kinase still bound, per cent of control (RPS6KA3 KD2 (human)) [%] | kinase still bound, per cent of control (SGK1 (human)) [%] | kinase still bound, per cent of control (WNK1 (human)) [%] | kinase still bound, per cent of control (NEK10 (human)) [%]
1 | COc1cc(N2CCC(C(N)=O)CC2)ccc1Nc1nc(N)c(Cl)c(Nc2ccccc2S(=O)(=O)C(C)C)n1 | 100 |  |  |  | 
2 | CNC(=O)Nc1ccc(-c2nc(N3CC4CCC(C3)O4)c3cnn(C4CCC5(CC4)OCCO5)c3n2)cc1 |  | 100 | 100 | 95 | 
3 | CCOc1cc(N2CCC(O)CC2)ccc1Nc1ncc2c(n1)N(C)c1ccccc1C(=O)N2C | 100 |  |  |  | 
4 | Cc1cn(-c2cc(C(=O)Nc3ccc(C)c(NC(=O)c4ccno4)c3)cc(C(F)(F)F)c2)cn1 | 8 |  |  |  | 
5 | O=c1[nH]c2ccccc2n1C1CCN(Cc2ccc(-c3nc4cc5[nH]cnc5cc4nc3-c3ccccc3)cc2)CC1 |  | 100 | 71 | 89 | 78
6 | COc1cc(C)c(Sc2cnc(NC(=O)c3ccc(CNC(C)C(C)C)cc3)s2)cc1C(=O)N1CCN(C(C)=O)CC1 (stereo unspecified) | 100 |  |  |  | 
7 | COc1cc2ncnc(Nc3cccc(Cl)c3)c2cc1OC |  | 71 | 68 | 71 | 91
8 | COc1ccc(N(C(=O)Oc2cc(C(=O)Nc3cccc(C(F)(F)F)c3)ccc2C)c2ccnc(Nc3ccc(N4CCN(C)CC4)cc3)n2)c(OC)c1 | 2 |  |  |  | 
